Measurements taken from patent US10899815B2, “Compositions and methods of using islet neogenesis peptides and analogs thereof” (SHENZHEN HIGHTIDE BIOPHARMACEUTICAL, LTD., priority 2013, dated 2021).

Columns and labels:
[1] = tested on: pancreatic islets; assay: Glucose-stimulated insulin secretion (GSIS) of isolated islets; format: cell-based, Sprague-Dawley (SD) rats; conditions: rat islets, 12.0 mM glucose, 10 μg/mL peptide (GLP-1 100 nM), 60 min, FIG. 8
Procedure: The pancreases were procured from male adult Sprague-Dawley (SD) rats. After 7 days acclimation, the animals were sacrificed by cervical dislocation and the entire pancreas was removed and digested with collagenase to isolate islets. After digestion, islets were maintained at 37° C. in RPMI 1640 (Carlsbad, Calif., USA) pH 7.4, containing 10% (v/v) fetal calf serum, 1% penicillin/streptomycin, and 10 mM glucose in a humid atmosphere (5% CO2/95% O2), without the addition of any compound (control), or with the addition of 100 nM glucagon like peptide-1 (GLP-1); or 10 μg/mL Peptide 1, Peptide 12, or Peptide 16, as summarized in Table 4 below. Cultured islets were rinsed in Krebs-Ringer bicarbonate buffer (KRB), pH 7.4, previously gassed with a mixture CO2/O2 (5/95%), and pre-incubated in 1.0 ml KRB containing 0.5% (w/v) BSA and 1.5 mM glucose at 37° C. for 45 min. After this period, groups of 5 islets were incubated in 0.6 ml KRB with the addition of 1.5 or 12.0 mM glucose, with or without the addition of peptides for 60 min. At the end of the incubation period, aliquots of the medium were collected for insulin quantitation.

[2] = Peptide stability in mouse plasma; format: in vitro ADME; conditions: 100 μg/mL, 37° C., LC-MS/MS, FIG. 3 and FIG. 5
Procedure: (§1) The stability of peptides was also tested in mouse and human plasma. Briefly, a certain amount of peptides and eucatropine powder (positive control) was accurately weighed. Test compounds were dissolved in 50% methanol-water solution and diluted to 20 mg/mL, and eucatropine was dissolved in dimethylsulfoxide (DMSO) and diluted to 10 mM, as a stock solution. Eucatropine stock solution was diluted to 0.2 mM with DMSO as a working solution. A stop reagent was prepared containing 200 ng/mL midazolam and tolbutamide in acetonitrile. A volume of 300 μL of stop solution was added to each well of a 96-well deep-well plate placed on ice beforehand.
(§2) For the stability studies, peptides and eucatropine were spiked into plasma respectively, mixed well, and then 100 μL of each mixture solution was transferred into the pre-cooled stop reagent as 0 time point sample. The remaining mixtures were incubated in a 37° C. water bath with shaking at 100 rpm (n=2). The final incubation concentration was 1 μM for eucatropine and 100 μg/mL for all test compounds.
At desired time points, 100 μl, of incubation mixture was transferred to the stop reagent to precipitate proteins. Samples were vortexed and centrifuged at RCF 5000-g for 10 minutes, and supernatant was transferred to a test plate. The samples were analyzed by LC-MS/MS.
Slope was calculated by plotting the natural logarithm of the percentage or remaining amount of test compounds and time, and T12 was calculated in accordance with the following formula.
For stability in mouse plasma, the incubation time was 0, 5, 15, 30 and 60 min for Peptide 1 and eucatropine, 0, 15, 30, 60, 120, 240 and 480 min for Peptide 12, Peptide 16 and Peptide 29.
In another stability study in mouse plasma, the incubation time was 0, 30, 60 and 120 min for Peptide 2 and eucatropine; 0, 30, 60, 120, 240 and 960 min for Peptide 52 and Peptide 54.

[3] = Peptide stability in human plasma; format: in vitro ADME; conditions: 100 μg/mL, 37° C., 0-120 min, FIG. 4
Procedure: as §1, §2
At desired time points, 100 μl, of incubation mixture was transferred to the stop reagent to precipitate proteins. […] The samples were analyzed by LC-MS/MS.
Slope was calculated by plotting the natural logarithm of the percentage or remaining amount of test compounds and time, and T12 was calculated in accordance with the following formula. […]

[4] = Pharmacokinetics in rat; format: in vivo, Sprague-Dawley (SD) rats; conditions: mouse and rat, 25 mg/kg
Procedure: After 7 days acclimation, male Sprague-Dawley (SD) rats weighing 210-250 g, or male C57BL/6 mice, weighing 19-24 g, in good health were used in the study. Peptide 1, Peptide 12 and Peptide 16 were dissolved in sterile normal saline and then they were injected via subcutaneous (sc) bolus or intravenous (iv) bolus at the dose level of 25 mg/kg. Three animals in each group were used for blood collection at the time point of 5 min, 15 min, 30 min, 1 h, 2 h, 4 h, 6 h, 8 h and 24 h post-dose. Blood samples (approximately 400 μL) were collected and placed into tubes containing EDTA-K2 and centrifuged at 8000 rpm for 6 minutes at 4° C. to separate plasma front the samples. The resulting plasma was stored frozen at −80° C. until being analyzed. Plasma concentrations of peptides were determined using tandem mass spectrometry (LC-MS/MS) analysis. A non-compartmental module of WinNonlin® Professional 5.2 (Pharsight; St. Louis, Mo.), was used to calculate PK parameters. The abbreviation AUC(0-t) represents area under the curve front the time of dosing to the time of the last observation, the AUC(0-∞) represents area under the curve from the time of dosing to infinity, and the Cmax represents maximum concentration detected.

Ac-IGLHDPSHGTLPNGS-OH [Peptide 16, Ac-IGLHDPSHGTLPNGS-OH]
glucose-stimulated insulin secretion versus islets without peptides [1]: released significantly more insulin
stability in mouse plasma [2]: good stability in mouse plasma and were more stable than INGAP-PP
stability in human plasma [3]: good stability in human plasma and were significantly more stable than INGAP-PP
PK properties (AUC and Cmax) compared to INGAP-PP [4]: marked improved PK properties
